The text below walks through data of patent publication US8466185B2, “Methods and assays for detecting and treating hypoglycemia” (priority 2008, dated 2013).

Entries after “also recorded” stand apart in the source; their conditions may differ.

Series [1] has as its system human islets. Kind of series: in vitro perifusion, insulin release from human islets. The conditions noted are these: 100 μM.
Experimental: (§2) A high-capacity, automated perifusion system was developed to dynamically measure hormone secretion from pancreatic islets. A low pulsatility peristaltic pump pushed HEPES-buffered solution (mM: 125 NaCl, 5.9 KCl, 2.56 CaCl2, 1 MgCl2, 25 HEPES, and 0.1% BSA; pH 7.4; and a perifusion rate of 100 μL/min) through a column containing 100 pancreatic islets immobilized in Bio-Gel P-4 Gel (BioRad, Hercules, Calif.). Except otherwise stated, glucose concentration was adjusted to 3 mM for all experiments. Stimuli were applied with the perifusion buffer. The perifusate was collected in an automatic fraction collector designed for a 96 well plate format. The columns containing the islets and the perifusion solutions were kept at 37° C., and the perifusate in the collecting plate was kept at <4° C. Perifusates were collected every minute. Hormone release in the perifusate was determined with the human or mouse Endocrine LINCOplex Kit following manufacturer's instructions (Linco research, St. Charles, Mo.).
The test system of series [2] is monkey islets. Briefly: in vitro perifusion, insulin release from monkey islets. The conditions noted are these: 100 μM; not shown.
In series [3] the test system is human islets and dispersed single islet cells. Kind of series: [Ca^2+]i imaging (Fura-2) of human islets and dispersed islet cells. In kind it is cell-based. The note with it: for [Ca^2+]i response: 100 μM. Here is the method: (§1) Glucose was added to give a final concentration of 3 mM. Islets or dispersed islet cells were incubated in Fura-2 AM (2 μM; 1 hour) and placed in a closed small-volume imaging chamber (Warner Instruments, Hamden, Conn.). Stimuli were applied with the bathing solution. Islets loaded with Fura-2 were excited alternatively at 340 and 380 nm with a monochromator light source (Cairn. Research Optoscan Monochromator, Cairn Research Ltd, Faversham, UK). Images were acquired with a Hamamatsu camera (Hamamatsu Corp, Japan) attached to a Zeiss Axiovert 200 microscope (Carl Zeiss, Jena, Germany). Changes in the 340/380 fluorescence emission ratio over time were analyzed in individual islets and dispersed cells using Kinetic Imaging AQM Advance software (Kinetic Imaging, N.C.). Peak changes in the fluorescence ratio constituted the response amplitude.

The conditions of series [4]: Beyreuther et al., 2007; cited from earlier work.
Series [5] deals with human islets. Format: cell-based. The note with it: glutamate 100 μM. Here is the method:
Perifusion of the islets was stopped after addition of the stimulus to allow the islet secretory products to accumulate and then resumed after 10 minutes.

In series [6] the test system is monkey islets and dispersed single islet cells. Kind of series: [Ca^2+]i imaging (Fura-2) of monkey islets and islet cells. In kind it is cell-based, monkey (Macacca fascicularis). The conditions noted are these: glutamate 100 μM. The method, then: as §1, with “Imaging of [Ca^2+]i was performed as described elsewhere (Cabrera et al., 2006). […] Glucose” for “Glucose”

A further series deals with C57BL/6 mice. Kind of series: in vivo responses to iGluR agonists injected i.p. Details: species or system mouse. The note with it: glutamate 30 mg/kg, AMPA 15 mg/kg, i.p. The method, then: We examined in vivo responses to iGluR agonists by injecting C57BL/6 mice i.p. with either PBS (n=4), monosodium glutamate (30 mg/kg; n=7), or AMPA (15 mg/kg; n=8). To determine whether blocking iGluRs exacerbates insulin-induced hypoglycemia, we injected the AMPA/kainate iGluR antagonist NBQX (Tocris, Ellisville, Mo.) i.p. at 20 mg/kg 30 minutes before mice were treated with insulin to induce hypoglycemia.

Series [7] relates to mouse islets. Briefly: perifusion, glucagon secretion from mouse islets. The note with it: for glucagon release / secretion: 100 μM. Format: cell-based, mouse (C57Bl/6).
Experimental: as §2
Series [8] concerns human islets. Briefly: in vitro perifusion, glucagon secretion from human islets. The conditions noted are these: for glucagon release / glucagon secretion: agonist 100 μM, 3 mM glucose. In kind it is cell-based.
Experimental: as §2
Series [9] relates to monkey islets. Kind of series: microfluorometric determination of endogenous glutamate release from islets. The conditions noted are these: kainate 100 μM; KCl 30 mM. Format: cell-based. The method, then: Endogenous glutamate release from pancreatic islets was measured with the Amplex Red Glutamic Acid Assay Kit (Molecular Probes) adapted for microscopic microfluorometric detection (Akagi et al., 2003). In this assay, released glutamate is a substrate in an enzymatic chain reaction that generates the highly fluorescent product resorufin (Molecular Probes, Eugene, Oreg.). L-glutamate is oxidized by glutamate oxidase to produce α-ketoglutarate, NH4, and H2O2. Hydrogen peroxide reacts with the Amplex Red reagent in a reaction catalyzed by horseradish peroxidase to generate resorufin. Pancreatic islets were allowed to attach to a glass coverslip previously coated with poly-D-lysine. The coverslip was mounted in a closed small-volume imaging chamber (Warner Instruments) and perifused with the HEPES-buffered solution containing the stimuli. Resorufin fluorescence was excited at 510 nm, and the emission recorded at 590 nm using the same imaging system used to measure [Ca^2+]i (see above).

Series [10] has as its system isolated human islet cells. Briefly: whole-cell patch clamp recordings of dispersed human islet cells. In kind it is cell-based. The conditions noted are these: kainate 100 μM; holding potential −70 mV. Here is the method:
Membrane currents were measured using whole-cell patch clamp recordings of dispersed human islet cells. All recordings were amplified using an EPC10 patch-clamp amplifier and digitized and analyzed using Patchmaster software (Heka Elektronik, Lambrecht, Germany). Pipettes were pulled from borosilicate glass capillaries on a horizontal programmable puller (DMZ Universal Puller, Zeitz-Instrumente, Augsburg, Germany). Pipettes with a resistance of 5-7 MΩ were filled with a pipette solution containing (in mM): 150 NMG (N-methyl-D-Glucamine), 10 EGTA, 1 MgCl2, 2 CaCl2, 5 HEPES and 3 Mg-ATP (pH 7.15). The bath solution contained (in mM): 138 NaCl, 5.6 KCl, 1.2 MgCl2, 2.6 CaCl2, 5 HEPES and 10 TEA (pH7.4). Cells were voltage-clamped at −70 mV. Ligands (e.g. kainate) were applied using the SF-77B Perfusion Fast-Step system (Warner Instruments, Hamden, Conn.), which allows rapid change of solutions bathing a single cell or membrane patch attached to a patch electrode. […] Thus, it is most likely that cells responding to kainate in our electrophysiological experiments were α-cells.

Series [11] deals with mouse islets. Kind of series: perifusion of mouse islets with β cells destroyed by streptozotocin versus intact islets. In kind it is cell-based. The conditions noted are these: streptozotocin-treated versus intact islets. Here is the method: This experiment was performed with mouse islets. Two samples were perifused in parallel (“a” and “b”). In “a” (blue curve and blue bar), but not in “b” (red curve and red bar) the β cells were selectively destroyed with streptozotocin. This absence of β cells generates type 1 diabetes-like condition in vitro. The glucagon release profile in panel “A” was obtained by using this model. […] Note that the non specific stimulus arginine is not able to differentiate a functionally impaired α cell in the absence of β cells.
At t=5 min, both samples were stimulated with 100 μM kainate for 5 min. The glucose was increased to 11 mM for 10 minutes and decreased again to 3 mM for the duration of the perifusion. At t=45 min, both samples (v) were stimulated with 5 mM Arginine. […] Kainate is a glutamate analog that is not metabolizable, and therefore a preferred agonist of the AMPA/Kainate receptors. Error bars represent the standards deviations for n=3 perifusions. Comparison were performed by an independent t-test.
For example, in some embodiments the present invention are directed to an in vitro model in which we destroy selectively the beta cells with, for example, streptozotocin, thus creating a situation that mimics type 1 diabetes. The treated islets are composed mainly of alpha cells. […] To examine if alpha cells in islets depleted of beta cells had impaired glutamate signaling, we stimulated them with kainate, an agonist for ionotropic glutamate receptors.

For `N[C@@H](CCC(=O)O)C(=O)O` [glutamate], the insulin release result is “Neither kainate (100 μM), glutamate (100 μM), nor AMPA (100 μM) stimulated increases in insulin release” in the series on human islets [1] and “Neither kainate (100 μM), glutamate (100 μM), nor AMPA (100 μM) stimulated increases in insulin release” in the series on monkey islets [2]. Also, in [3], the “cells responding to high glucose (11 mM) that did not respond to glutamate” value is recorded as 64 out of 64. The “[Ca^2+]i response” value was “elicited concentration-dependent [Ca^2+]i; responses; also recorded: increases in cytoplasmic free Ca^2+ concentration” in series [3] and “increases in cytoplasmic free Ca^2+ concentration” in series [6]. Moreover, in series [3] (n=4 human preparations), the “glutamate-responsive cells that were glucagon-immunoreactive” value is listed as 34 out of 37. Further, the blood-brain barrier penetration result in series [4] is listed as “does not penetrate the blood-brain barrier”. The “glucagon secretion from human islets measured by [Ca^2+]i responses in biosensor cells” value with human islets [5] (islets on biosensor cells) was “large [Ca^2+]i responses; also recorded: elicited glucagon secretion from human islets”. Moreover, in the series with human islets [5] (no islets), the “[Ca^2+]i response of biosensor cells in the absence of islets” value is “did not respond; also recorded: No responses were seen”. Also, the plasma insulin concentrations result with C57BL/6 mice is recorded as “not affected; also recorded: did not change”. For the same compound, in the series with C57BL/6 mice (30 minutes after treatment), the plasma glucagon concentrations entry was “increased plasma glucagon concentrations”. The plasma glucose concentrations entry with C57BL/6 mice (thirty minutes after injection) is “increased glucose levels”. Moreover, the “glucagon release / secretion” value in the series on mouse islets [7] is “stimulated glucagon release”. Further, the “glucagon responses to glutamate in islets from mGluR4 knockout versus control mice” value in the series on mouse islets [7] (glutamate 100 μM) is “undistinguishable in wild type and mGluR4KO mice”. The “glucagon release / glucagon secretion” value with human islets [8] is given as “induced glucagon responses”. Also, the glucagon release entry with human islets [8] (glutamate 1 μM-1 mM) is on record as “stimulated large, concentration-dependent increases in glucagon release”.
Take `C=C(C)[C@H]1CN[C@H](C(=O)O)[C@H]1CC(=O)O` [kainate]: the insulin release result in the series on human islets [1] is on record as “Neither kainate (100 μM), glutamate (100 μM), nor AMPA (100 μM) stimulated increases in insulin release”; in the series with monkey islets [2], “Neither kainate (100 μM), glutamate (100 μM), nor AMPA (100 μM) stimulated increases in insulin release”. In addition, the “glutamate release (resorufin fluorescence)” value with monkey islets [9] is on record as “induced significant glutamate release; also recorded: strongly released glutamate”. Also, the “glucagon immunoreactive cells that responded to kainate” value in series [3] was 7 out of 9. Besides, in series [3], the “[Ca^2+]i response” value was “large increases in [Ca^2+]i”. In addition, the “kainate responsive cells that were glucagon immunoreactive” value in [3] ([Ca^2+]i imaging experiments) was > 75%. Also, in series [3] (kainate 100 μM), the “glutamate-responding cells that also responded to kainate” value was 12 out of 12. For the same compound, the “insulin immunoreactive cells that responded to kainate” value in series [3] (n=8) is given as “None”. Also, the whole-cell inward currents result in series [10] is “elicited inward currents”. Further, the “glucagon release / secretion” value with mouse islets [7] is “stimulated glucagon secretion”. Further, the “reduction of amplitude of kainate-induced glucagon release in absence of β cells” value with mouse islets [11] (kainate 100 μM for 5 min) is listed as 55%. For the same compound, the “kainate potentiation of glucagon release in absence versus presence of β cells” value in the series with mouse islets [11] is “not as effective in potentiating glucagon release; also recorded: strongly reduced glucagon responses”. In addition, the entries for the “glucagon release / glucagon secretion” value with human islets [8] and in the series on human islets [8] (listed as Kainate) were “stimulated large increases in glucagon secretion; also recorded: Increases in glucagon release could also be elicited” and “elicited strong glucagon secretion”, respectively.
